Data on 24 compounds can be found in patent publication US8513229B2, “4-Azetidinyl-1-phenyl-cyclohexane antagonists of CCR2” (Janssen Pharmaceutica NV, priority 2009, dated 2013).

The target in the assay is T1, CCR2 (Homo sapiens, UniProt P41597).
T1 construct: host or cells: THP-1 human monocytic cells
T1 sequence (P41597 1-360 isoform P41597-2): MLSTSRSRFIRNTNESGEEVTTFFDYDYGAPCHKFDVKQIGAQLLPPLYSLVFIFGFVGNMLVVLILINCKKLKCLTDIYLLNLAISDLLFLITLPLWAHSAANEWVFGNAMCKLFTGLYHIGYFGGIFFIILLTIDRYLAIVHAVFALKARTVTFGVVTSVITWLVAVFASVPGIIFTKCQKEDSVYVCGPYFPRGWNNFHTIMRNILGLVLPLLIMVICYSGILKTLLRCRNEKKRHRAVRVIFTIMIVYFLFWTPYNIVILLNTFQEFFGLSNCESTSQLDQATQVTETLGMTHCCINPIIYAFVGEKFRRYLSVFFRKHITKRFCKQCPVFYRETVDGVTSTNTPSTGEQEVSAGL
Kind of assay: MCP-1 Receptor Binding Assay in THP-1 Cells. The conditions noted are these: 0.5 nM 125I labeled MCP-1, 2 hours at 30° C., read-out: Inhibition of MCP-1 Binding IC50 CCR2 Binding. The method, then: MCP-1 Receptor Binding Assay in THP-1 Cells
Human monocytic cell line THP-1 cells were obtained from American Type Culture Collection (Manassas, Va., USA). […] The cell density was maintained […].
1 μM cold MCP-1 was used for nonspecific binding.

SMILES strings stand for the structures.

Regarding `COC(=O)COc1ccc(C2CCC(N3CC(NC(=O)CNC(=O)c4cccc(C(F)(F)F)c4)C3)CC2)cc1` (stereo not drawn) [Example 43], the concentration for half-maximal inhibition (IC50) – broadly, the point on the concentration scale where inhibition reaches its midpoint – was determined as 38 nM.

For the compound `O=C(O)COc1ccc(C2CCC(N3CC(NC(=O)CNC(=O)c4cccc(C(F)(F)F)c4)C3)CC2)cc1` (stereo not drawn) [Example 44], the IC50 turned out to be 124 nM.

Consider `O=C(CNC(=O)c1cccc(C(F)(F)F)c1)NC1CN(C2CCC(O)(c3ccc(C(=O)O)cc3)CC2)C1` (stereo not drawn) [Example 45, 4-(1-Hydroxy-4-{3-[2-(3-trifluoromethyl-benzoylamino)-acetylamino]-azetidin-1-yl}-cyclohexyl)-benzoic acid], for which the 50% inhibitory concentration (IC50) was determined as 6900 nM.

`O=C(CNC(=O)c1cccc(C(F)(F)F)c1)NC1CN(C2CCC(O)(c3cccc(-c4nnn[nH]4)c3)CC2)C1` (stereo not drawn) [Example 49, N-[(1-{4-Hydroxy-4-[3-(1H-tetrazol-5-yl)-phenyl]-cyclohexyl}-azetidin-3-ylcarbamoyl)-methyl]-3-trifluoromethyl-benzamide]: the IC50 was determined as 810 nM.

Consider `CC(C)(C)OC(=O)Nc1ccc(C2(O)CCC(N3CC(NC(=O)CNC(=O)c4cccc(C(F)(F)F)c4)C3)CC2)cc1` (stereo not drawn) [Example 50, [4-(1-Hydroxy-4-{3-[2-(3-trifluoromethyl-benzoylamino)-acetylamino]-azetidin-1-yl}-cyclohexyl)-phenyl]-carbamic acid tert-butyl ester], for which the IC50 came out at 230 nM.

Turning to `CCc1cccc(C2(O)CCC(N3CC(NC(=O)CNC(=O)c4cccc(C(F)(F)F)c4)C3)CC2)c1` (stereo not drawn) [Example 52, N-({1-[4-(3-Ethyl-phenyl)-4-hydroxy-cyclohexyl]-azetidin-3-ylcarbamoyl}-methyl)-3-trifluoromethyl-benzamide], the 50% inhibitory concentration (IC50) was determined as 160 nM.

Turning to `O=C(CNC(=O)c1cccc(C(F)(F)F)c1)NC1CN(C2CCC(O)(c3ccc(Cl)cc3)CC2)C1` (stereo not drawn) [Example 53, N-({1-[4-(4-Chloro-phenyl)-4-hydroxy-cyclohexyl]-azetidin-3-ylcarbamoyl}-methyl)-3-trifluoromethyl-benzamide], the IC50 was 240 nM.

Regarding `Cc1ccc(C2(O)CCC(N3CC(NC(=O)CNC(=O)c4cccc(C(F)(F)F)c4)C3)CC2)cc1` (stereo not drawn) [Example 59, N-{[1-(4-Hydroxy-4-p-tolyl-cyclohexyl)-azetidin-3-ylcarbamoyl]-methyl}-3-trifluoromethyl-benzamide], the IC50 was 100 nM.

Take `Cc1cccc(C2(O)CCC(N3CC(NC(=O)CNC(=O)c4cccc(C(F)(F)F)c4)C3)CC2)c1` (stereo not drawn) [Example 60, N-{[1-(4-Hydroxy-4-m-tolyl-cyclohexyl)-azetidin-3-ylcarbamoyl]-methyl}-3-trifluoromethyl-benzamide]: the IC50 came to 100 nM.

For the compound `CS(=O)(=O)Nc1cccc(C2(O)CCC(N3CC(NC(=O)CNC(=O)c4cccc(C(F)(F)F)c4)C3)CC2)c1` (stereo not drawn) [Example 61, N-({1-[4-Hydroxy-4-(3-methanesulfonylamino-phenyl)-cyclohexyl]-azetidin-3-ylcarbamoyl}-methyl)-3-trifluoromethyl-benzamide], the half-inhibitory concentration (IC50) is 130 nM.

For the compound `Cn1c(=O)n(C)c2cc(C3(O)CCC(N4CC(NC(=O)CNC(=O)c5cccc(C(F)(F)F)c5)C4)CC3)ccc21` (stereo not drawn) [Example 62, N-({1-[4-(1,3-Dimethyl-2-oxo-2,3-dihydro-1H-benzoimidazol-5-yl)-4-hydroxy-cyclohexyl]-azetidin-3-ylcarbamoyl}-methyl)-3-trifluoromethyl-benzamide], the IC50 came to 82 nM.

For `Cn1c(=O)oc2ccc(C3(O)CCC(N4CC(NC(=O)CNC(=O)c5cccc(C(F)(F)F)c5)C4)CC3)cc21` (stereo not drawn) [Example 63a, N-({1-[4-Hydroxy-4-(3-methyl-2-oxo-2,3-dihydro-benzooxazol-5-yl)-cyclohexyl]-azetidin-3-ylcarbamoyl}-methyl)-3-trifluoromethyl-benzamide], the IC50 was 150 nM.

In the case of `Cn1cnc2ccc(C3(O)CCC(N4CC(NC(=O)CNC(=O)c5cccc(C(F)(F)F)c5)C4)CC3)cc21` (stereo not drawn) [Example 64, N-({1-[4-Hydroxy-4-(3-methyl-3H-benzoimidazol-5-yl)-cyclohexyl]-azetidin-3-ylcarbamoyl}-methyl)-3-trifluoromethyl-benzamide], the concentration for half-maximal inhibition (IC50) is 110 nM.

On to `O=C(CNC(=O)c1cc(C(F)(F)F)ccc1F)NC1CN(C2CCC(c3ccccc3)CC2)C1` (stereo not drawn) [Example 66, 2-Fluoro-N-{[1-(4-phenyl-cyclohexyl)-azetidin-3-ylcarbamoyl]-methyl}-5-trifluoromethyl-benzamide], for which the IC50 stood at 620 nM.

For the compound `COc1ccc(C(=O)NCC(=O)NC2CN(C3CCC(c4ccccc4)CC3)C2)cc1C(F)(F)F` (stereo not drawn) [Example 67, 4-Methoxy-N-{[1-(4-phenyl-cyclohexyl)-azetidin-3-ylcarbamoyl]-methyl}-3-trifluoromethyl-benzamide], the IC50 was 600 nM.

With `COc1ccc(C(F)(F)F)cc1C(=O)NCC(=O)NC1CN(C2CCC(c3ccccc3)CC2)C1` (stereo not drawn) [Example 68, 2-Methoxy-N-{[1-(4-phenyl-cyclohexyl)-azetidin-3-ylcarbamoyl]-methyl}-5-trifluoromethyl-benzamide], the IC50 came to 740 nM.

As to `CN(C)c1ccc(C(F)(F)F)cc1C(=O)NCC(=O)NC1CN(C2CCC(c3ccccc3)CC2)C1` (stereo not drawn) [Example 69, 2-Dimethylamino-N-{[1-(4-phenyl-cyclohexyl)-azetidin-3-ylcarbamoyl]-methyl}-5-trifluoromethyl-benzamide], the IC50 was 240 nM.

Turning to `O=C(CNC(=O)c1cc(C(F)(F)F)ccc1N1CCCC1)NC1CN(C2CCC(c3ccccc3)CC2)C1` (stereo not drawn) [Example 70, N-{[1-(4-Phenyl-cyclohexyl)-azetidin-3-ylcarbamoyl]-methyl}-2-pyrrolidin-1-yl-5-trifluoromethyl-benzamide], the concentration for half-maximal inhibition (IC50) was 1700 nM.

`O=C(CNC(=O)c1ccc(NCCO)c(C(F)(F)F)c1)NC1CN(C2CCC(c3ccccc3)CC2)C1` (stereo not drawn) [Example 72, 4-(2-Hydroxy-ethylamino)-N-{[1-(4-phenyl-cyclohexyl)-azetidin-3-ylcarbamoyl]-methyl}-3-trifluoromethyl-benzamide]: the IC50 worked out at 400 nM.

For the compound `O=C(CNC(=O)c1ccc([N+](=O)[O-])c(C(F)(F)F)c1)NC1CN(C2CCC(c3ccccc3)CC2)C1` (stereo not drawn) [Example 73, 4-Nitro-N-{[1-(4-phenyl-cyclohexyl)-azetidin-3-ylcarbamoyl]-methyl}-3-trifluoromethyl-benzamide], the concentration for half-maximal inhibition (IC50) is 490 nM.

Turning to `Nc1ccc(C(=O)NCC(=O)NC2CN(C3CCC(c4ccccc4)CC3)C2)cc1C(F)(F)F` (stereo not drawn) [Example 74, 4-Amino-N-{[1-(4-phenyl-cyclohexyl)-azetidin-3-ylcarbamoyl]-methyl}-3-trifluoromethyl-benzamide], the concentration for half-maximal inhibition (IC50) is 46 nM.

Turning to `O=C(CNC(=O)c1cc(Br)cc(C(F)(F)F)c1)NC1CN(C2CCC(c3ccccc3)CC2)C1` (stereo not drawn) [Example 77, 3-Bromo-N-{[1-(4-phenyl-cyclohexyl)-azetidin-3-ylcarbamoyl]-methyl}-5-trifluoromethyl-benzamide], the half-inhibitory concentration (IC50) came to 380 nM.

As to `O=C(CNC(=O)c1cc([N+](=O)[O-])cc(C(F)(F)F)c1)NC1CN(C2CCC(c3ccccc3)CC2)C1` (stereo not drawn) [Example 78, 3-Nitro-N-{[1-(4-phenyl-cyclohexyl)-azetidin-3-ylcarbamoyl]-methyl}-5-trifluoromethyl-benzamide], the IC50 came out at 1000 nM.

For the compound `Nc1cc(C(=O)NCC(=O)NC2CN(C3CCC(c4ccccc4)CC3)C2)cc(C(F)(F)F)c1` (stereo not drawn) [Example 79, 3-Amino-N-{[1-(4-phenyl-cyclohexyl)-azetidin-3-ylcarbamoyl]-methyl}-5-trifluoromethyl-benzamide], the half-inhibitory concentration (IC50) is 23 nM.
